Measured values published in ChEMBL document CHEMBL1148279, “Effects of bisphosphonates on the growth of Entamoeba histolytica and Plasmodium species in vitro and in vivo” (J Med Chem, 2004).
pIC50: −log10 of the molar value.

Assays:
Entamoeba histolytica = assay: In vitro growth inhibition against Entamoeba histolytica; format: functional, organism-based
[1] = Therapeutic index was expressed as ratio of LD50 for KB cell line to IC50 against Entamoeba histolytica; format: cell-based; settings: human, KB cells; read-out: TI
[2] = Therapeutic index was expressed as ratio of LD50 for KB cell line to IC50 against Plasmodium falciparum; format: cell-based; settings: human, KB cells; read-out: TI
in vitro = settings: human, KB cells (nasopharyngeal carcinoma)
Description: Toxicity evaluated against human nasopharyngeal carcinoma KB cell line

Plasmodium falciparum [3] = assay: microbe, parasite or virus in culture
Description: In vitro growth inhibition against Plasmodium falciparum

Cricetinae gen. sp. [4] = assay: Percent decrease of amebic liver abscess (mg) formation in Entamoeba histolytica infected hamsters (treated at 10 mg/kg ip once a day for 5 days); format: functional; settings: route intraperitoneal
Cricetinae gen. sp. [5] = assay: Percent decrease of normal liver weight (mg) in Entamoeba histolytica infected hamsters (treated at 10 mg/kg ip once a day for 5 days); format: functional, Cricetulus griseus; settings: route intraperitoneal
Cricetinae gen. sp. [6] = assay: Mean effect on amebic liver abscess (mg) formation in Entamoeba histolytica infected hamsters (treated at 10 mg/kg ip once a day for 5 days); format: functional, Cricetulus griseus; settings: route intraperitoneal
Cricetinae gen. sp. [7] = assay: Mean effect on normal liver weight (mg) in Entamoeba histolytica infected hamsters (treated at 10 mg/kg ip once a day for 5 days); format: functional, Cricetulus griseus; settings: route intraperitoneal
[8] = Inhibitory activity against Entamoeba histolytica pyrophosphate-dependent phosphofructokinase (PFK); format: functional
Mus musculus [9] = assay: Mean reduction in parasitaemia of Plasmodium berghei ANKA suppressive test in mice (Mus musculus) (in vivo) at 25 mg/kg scheduled for 4 days; format: functional
[10] = Inhibitory activity against Entamoeba histolytica pyrophosphate-dependent phosphofructokinase (PFK) (Range is 600-1200); format: functional
Mus musculus [11] = assay: Mean reduction in parasitaemia of Plasmodium berghei ANKA suppressive test in mice (Mus musculus) (in vivo) at 10 mg/kg scheduled for 2 days; format: functional
Plasmodium falciparum [12] = assay: Inhibitory activity against Plasmodium falciparum W2
Plasmodium falciparum [13] = assay: Inhibitory activity against Plasmodium falciparum 3D7
Plasmodium falciparum [14] = assay: Inhibitory activity against Plasmodium falciparum Ghana
Mus musculus [15] = assay: Mean reduction in parasitaemia of Plasmodium berghei ANKA suppressive test in mice (Mus musculus) (in vivo) at 10 mg/kg scheduled for 4 days; format: functional
[16] = Inhibitory activity against Entamoeba histolytica pyrophosphate-dependent phosphofructokinase (PFK) (Range is 2500-3000); format: functional
[17] = Inhibitory activity against Entamoeba histolytica pyrophosphate-dependent phosphofructokinase (PFK) (Range is 900-1000); format: functional

`O=P(O)(O)C(Nc1ccc(-c2ccccc2)cc1)P(=O)(O)O` showed a pIC50 (Entamoeba histolytica) of 5.06, a selectivity ratio [1] of 56.5 and a selectivity ratio [2] of 6.46. The CC50 (in vitro) was 495 µM and the pIC50 (Plasmodium falciparum [3]) was 4.12.
`CCCCCCCCCCC(O)(P(=O)(O)O)P(=O)(O)O` showed a pIC50 (Entamoeba histolytica) of 4.96, a Decrease (Cricetinae gen. sp. [4]) of 68% and a Decrease (Cricetinae gen. sp. [5]) of 9%. For the same molecule, the Mean effect (Cricetinae gen. sp. [6]) was 285 mg, the Mean effect (Cricetinae gen. sp. [7]) was 2163 mg and the pIC50 [8] was 4.70. For the same molecule, the CC50 (in vitro) was > 806 µM and the pIC50 (Plasmodium falciparum [3]) was 5.28.
With `CCCCC(O)(P(=O)(O)O)P(=O)(O)O` the pIC50 (Entamoeba histolytica) was < 3.70, the selectivity ratio [2] was > 18.4 and the CC50 (in vitro) was > 1040 µM.
In the case of `CCCCCC(O)(P(=O)(O)O)P(=O)(O)O`, the pIC50 (Entamoeba histolytica) was 3.80, the Reduction (Mus musculus [9]) was 80% and the pIC50 [10] was 2.92. The CC50 (in vitro) was > 993 µM and the pIC50 (Plasmodium falciparum [3]) was 5.26.
In the case of `CN(CCc1ccccc1)CCC(O)(P(=O)(O)O)P(=O)(O)O`, the pIC50 (Entamoeba histolytica) was 3.84, the selectivity ratio [1] was > 5.2 and the selectivity ratio [2] was > 22. The CC50 (in vitro) was > 739 µM and the pIC50 (Plasmodium falciparum [3]) was 4.47.
For `O=P(O)(O)C(Nc1ccc(O)nc1)P(=O)(O)O`, the pIC50 (Entamoeba histolytica) was 4.02, the selectivity ratio [1] was 2.67 and the selectivity ratio [2] was 1.3. The CC50 (in vitro) was 257 µM and the pIC50 (Plasmodium falciparum [3]) was 3.71.
`CCCCCCCCCCCC(O)(P(=O)(O)O)P(=O)(O)O` showed a pIC50 (Entamoeba histolytica) of 4.20, a pIC50 [8] of 4.40 and a pIC50 (Plasmodium falciparum [3]) of 5.97.
`CN(CCOc1ccccc1)CCC(O)(P(=O)(O)O)P(=O)(O)O` showed a pIC50 (Entamoeba histolytica) of 5.19, a Decrease (Cricetinae gen. sp. [4]) of -19% and a Decrease (Cricetinae gen. sp. [5]) of 3%. For the same molecule, the Mean effect (Cricetinae gen. sp. [6]) was 1058 mg, the Mean effect (Cricetinae gen. sp. [7]) was 2295 mg and the CC50 (in vitro) was 312 µM. It also gave a pIC50 (Plasmodium falciparum [3]) of 4.50.
Molecule `CCCCCCCCCC(O)(P(=O)(O)O)P(=O)(O)O` has a pIC50 (Entamoeba histolytica) of 4.88, a Reduction (Mus musculus [11]) of 75% and a pIC50 [8] of 4.15. The CC50 (in vitro) was > 775 µM, the pIC50 (Plasmodium falciparum [3]) was 6.08 and the pIC50 (Plasmodium falciparum [12]) was 6.00. For the same molecule, the pIC50 (Plasmodium falciparum [13]) was 6.08 and the pIC50 (Plasmodium falciparum [14]) was 5.70.
In the case of `CCCCCC(C)NC(P(=O)(O)O)P(=O)(O)O` (stereo not drawn), the pIC50 (Entamoeba histolytica) was 4.19, the selectivity ratio [1] was > 15.1 and the selectivity ratio [2] was > 9.64. The CC50 (in vitro) was > 989 µM and the pIC50 (Plasmodium falciparum [3]) was 3.99.
With `CN(CCCc1ccccc1)CCC(O)(P(=O)(O)O)P(=O)(O)O` the pIC50 (Entamoeba histolytica) was 4.35, the selectivity ratio [1] was 8.4 and the selectivity ratio [2] was 16.6. It also gave a CC50 (in vitro) of 379 µM and a pIC50 (Plasmodium falciparum [3]) of 4.64.
In the case of `CCCCCCC(CCCC)C(O)(P(=O)(O)O)P(=O)(O)O` (stereo not drawn), the pIC50 (Entamoeba histolytica) was 4.91, the pIC50 [8] was 3.00 and the selectivity ratio [1] was 19.1. For the same molecule, the CC50 (in vitro) was 228 µM and the pIC50 (Plasmodium falciparum [3]) was < 3.70.
For `CCCCCCc1ccc(NC(P(=O)(O)O)P(=O)(O)O)cc1`, the pIC50 (Entamoeba histolytica) was 3.88, the selectivity ratio [1] was 2.83 and the selectivity ratio [2] was 8.06. For the same molecule, the CC50 (in vitro) was 373 µM and the pIC50 (Plasmodium falciparum [3]) was 4.33.
In the case of `O=P(O)(O)C(Nc1cc(Br)cc(Br)n1)P(=O)(O)O`, the pIC50 (Entamoeba histolytica) was 4.55, the Decrease (Cricetinae gen. sp. [4]) was 14% and the Decrease (Cricetinae gen. sp. [5]) was -22%. For the same molecule, the Mean effect (Cricetinae gen. sp. [6]) was 767 mg, the Mean effect (Cricetinae gen. sp. [7]) was 2883 mg and the selectivity ratio [1] was 18.2. For the same molecule, the CC50 (in vitro) was 520 µM and the pIC50 (Plasmodium falciparum [3]) was < 3.70.
With `CCCCCCC(O)(P(=O)(O)O)P(=O)(O)O` the pIC50 (Entamoeba histolytica) was 4.53, the Reduction (Mus musculus [15]) was 48% and the pIC50 [16] was 2.52. For the same molecule, the CC50 (in vitro) was 109 µM, the pIC50 (Plasmodium falciparum [3]) was 5.36 and the pIC50 (Plasmodium falciparum [12]) was 6.30. The pIC50 (Plasmodium falciparum [13]) was 5.36 and the pIC50 (Plasmodium falciparum [14]) was 6.30.
For `O=P(O)(O)C(O)(CSc1ccncc1)P(=O)(O)O`, the pIC50 (Entamoeba histolytica) was < 3.70, the selectivity ratio [2] was > 4.72 and the CC50 (in vitro) was > 746 µM.
`O=P(O)(O)C(Nc1cccc(-c2ccccc2)c1)P(=O)(O)O` showed a pIC50 (Entamoeba histolytica) of 5.18, a Decrease (Cricetinae gen. sp. [4]) of 36% and a Decrease (Cricetinae gen. sp. [5]) of -4%. It also gave a Mean effect (Cricetinae gen. sp. [6]) of 570 mg, a Mean effect (Cricetinae gen. sp. [7]) of 2459 mg and a pIC50 [8] of 4.05. For the same molecule, the CC50 (in vitro) was 749 µM and the pIC50 (Plasmodium falciparum [3]) was < 3.70.
Work on `CCCCCCCCCCCCCC(O)(P(=O)(O)O)P(=O)(O)O` yielded a pIC50 (Entamoeba histolytica) of 4.13, a selectivity ratio [1] of 0.5 and a selectivity ratio [2] of 17.4. It also gave a CC50 (in vitro) of 36.8 µM and a pIC50 (Plasmodium falciparum [3]) of 5.67.
With `CCCCCCCCCCCCCCCC(O)(P(=O)(O)O)P(=O)(O)O` the pIC50 (Entamoeba histolytica) was 4.36, the selectivity ratio [1] was > 16.6 and the selectivity ratio [2] was > 25.3. For the same molecule, the CC50 (in vitro) was > 729 µM and the pIC50 (Plasmodium falciparum [3]) was 4.54.
With `CCCCc1ccc(NC(P(=O)(O)O)P(=O)(O)O)cc1` the pIC50 (Entamoeba histolytica) was 3.76, the selectivity ratio [1] was 1.62 and the selectivity ratio [2] was 8.89. The CC50 (in vitro) was 278 µM and the pIC50 (Plasmodium falciparum [3]) was 4.50.
For `CN(CCCCc1ccccc1)CCC(O)(P(=O)(O)O)P(=O)(O)O`, the pIC50 (Entamoeba histolytica) was 4.63, the Decrease (Cricetinae gen. sp. [4]) was 89% and the Decrease (Cricetinae gen. sp. [5]) was 26%. The Mean effect (Cricetinae gen. sp. [6]) was 94 mg, the Mean effect (Cricetinae gen. sp. [7]) was 1756 mg and the CC50 (in vitro) was > 690 µM. For the same molecule, the pIC50 (Plasmodium falciparum [3]) was 5.54.
In the case of `O=P(O)(O)C(O)(Cc1ccccc1)P(=O)(O)O`, the pIC50 (Entamoeba histolytica) was < 3.70, the Reduction (Mus musculus [9]) was 64% and the pIC50 [17] was 3.00. For the same molecule, the selectivity ratio [2] was > 121 and the CC50 (in vitro) was > 931 µM.
Work on `CCN(CC)C(P(=O)(O)O)P(=O)(O)O` [(DIETHYLAMINO)METHYLENEDIPHOSPHONIC ACID] yielded a pIC50 (Entamoeba histolytica) of 4.20, a selectivity ratio [1] of 12.9 and a selectivity ratio [2] of 8.98. The pIC50 (Plasmodium falciparum [3]) was 4.05.
With `CCCCCCNC(P(=O)(O)O)P(=O)(O)O` [(HEXYLAMINO)METHYLENEDIPHOSPHONIC ACID] the pIC50 (Entamoeba histolytica) was < 3.70, the selectivity ratio [2] was > 17.1 and the CC50 (in vitro) was > 966 µM. It also gave a pIC50 (Plasmodium falciparum [3]) of 4.25.
In the case of `CC(C)CCNC(P(=O)(O)O)P(=O)(O)O` [(ISOPENTYLAMINO)METHYLENEDIPHOSPHONIC ACID], the pIC50 (Entamoeba histolytica) was 4.43, the selectivity ratio [1] was 13 and the CC50 (in vitro) was 480 µM. For the same molecule, the pIC50 (Plasmodium falciparum [3]) was < 3.70.
With `CCCCCCCCCNC(P(=O)(O)O)P(=O)(O)O` [(NONYLAMINO)METHYLENEDIPHOSPHONIC ACID] the pIC50 (Entamoeba histolytica) was 3.87, the selectivity ratio [1] was > 6.76 and the selectivity ratio [2] was > 8.18. For the same molecule, the CC50 (in vitro) was > 919 µM and the pIC50 (Plasmodium falciparum [3]) was 3.95.
With `CCCCCCCCNC(P(=O)(O)O)P(=O)(O)O` [(OCTYLAMINO)METHYLENEDIPHOSPHONIC ACID] the pIC50 (Entamoeba histolytica) was 4.51, the pIC50 [8] was < 2.52 and the selectivity ratio [1] was 2.15. It also gave a selectivity ratio [2] of 5.02 and a pIC50 (Plasmodium falciparum [3]) of 4.88.
With `CCCCCNC(P(=O)(O)O)P(=O)(O)O` [(PENTYLAMINO)METHYLENEDIPHOSPHONIC ACID] the pIC50 (Entamoeba histolytica) was < 3.70, the selectivity ratio [2] was > 240 and the CC50 (in vitro) was > 1150 µM. For the same molecule, the pIC50 (Plasmodium falciparum [3]) was 5.32.
`CCN(CC)CCCC(C)Nc1ccnc2cc(Cl)ccc12` (stereo not drawn) [CHLOROQUINE] gave a Reduction (Mus musculus [15]) of 100%.
In the case of `O=P(O)(O)C(N1CCOCC1)P(=O)(O)O` [MORPHOLINOMETHYLENEDIPHOSPHONIC ACID], the pIC50 (Entamoeba histolytica) was < 3.70, the selectivity ratio [2] was 52.4 and the CC50 (in vitro) was 964 µM. The pIC50 (Plasmodium falciparum [3]) was 4.74.
In the case of `NCCC(O)(P(=O)(O)O)P(=O)(O)O` [PAMIDRONIC ACID], the pIC50 (Entamoeba histolytica) was < 3.70 and the Reduction (Mus musculus [9]) was 5%.
For `O=P(O)(O)C(O)(Cc1cccnc1)P(=O)(O)O` [RISEDRONIC ACID], the pIC50 (Entamoeba histolytica) was 4.13 and the pIC50 [8] was < 2.52.
